Counter-ions that a name gives are not always drawn.

The test system of series [1] is cerebellar granule cells (CGC). The series is described as follows: Antiapoptotic capacity (rescue) in cerebellar granule cells induced into apoptosis by cytosine arabinoside (CGC assay). The series is classed as cell-based, Wistar rat. The conditions noted are these: for Rescue by Amino Tetrazoles in the CGC Assay, Rescue (overall yes/no) / Rescue by Amino Acids and Esters in the CGC Assay, Rescue (overall yes/no) / Rescue by Amino Nitriles in the CGC Assay, Rescue (overall yes/no) / Rescue by Amino Phosphonic Acids in the CGC Assay, Rescue (overall yes/no): overall over 10^−6, 10^−9, 10^−12 M. The source says: In Vitro Protocol for Assessing the Antiapoptotic Capacity of Various Compounds in Cerebellar Granule Cells
Cultures of cerebellar granule cells (CGC) can be induced into apoptosis by the addition of a high concentration of cytosine arabinoside (AraC). It has been shown that this is a p53 dependent apoptosis. We have measured the antiapoptotic effect of some amino acids, amino esters, amino phosphonic acids, amino nitriles and amino tetrazoles using this system.
Cultures of CGC were obtained from 6-8 day old Wistar rat pups. Cultures were grown on glass in 35 mm petri dishes for three days and then used for experiments. Aliquots (20 ul) of drug solutions (AraC, anti-apoptotic drugs, drug vehicles) were added to the medium of the culture. 24 Hours later the cultures were fixed with FAM, and stained with bis-benzamide. Normal and apoptotic nuclei were counted to a total of 90-120 cells per culture.

Where [2] appears, read: compound 10^−6 M, AraC 300 uM-induced apoptosis, 24 hours.
Setting [3] is: compound 10^−9 M, AraC 300 uM-induced apoptosis, 24 hours.
Where [4] appears, read: compound 10^−12 M, AraC 300 uM-induced apoptosis, 24 hours.

Take `CCOC(=O)CNC(C)C` (as salt: hydrochloride): the melting point fell in the range of 120 to 121 °C.

`CCCCC[C@H](C)NCCC(=O)OC` (stereo in doubt) (as salt: hydrochloride): the melting point fell in the range of 89.5 to 90.5 °C.

For the compound `CCCCCC(C)NCCC(=O)O` (stereo in doubt) (as salt: hydrochloride) [R-2-Heptyl (B-Alanines), (R)-3-(2-Heptylamino)propionic acid hydrochloride], the melting point lay within 57 to 58 °C.

As for `CCCCCC(C)NCCc1nnn[nH]1` (stereo in doubt) [R-2-Heptyl (Amino Tetrazoles), (R)-2-(2-Heptylamino)ethane-5-tetrazole hydrochloride], the “Rescue by Amino Tetrazoles in the CGC Assay, 10^−6 M” value in series [1] (setting [2]) is “R”. Further, the “Rescue by Amino Tetrazoles in the CGC Assay, 10^−9 M” value in series [1] (setting [3]) is on record as “R”. In addition, the “Rescue by Amino Tetrazoles in the CGC Assay, 10^−12 M” value in series [1] (setting [4]) was “R”. The “Rescue by Amino Tetrazoles in the CGC Assay, Rescue (overall yes/no)” value in series [1] is “yes”.

Take `CCCCCC(C)NCCC(=O)O` (stereo in doubt) [R-2-Heptyl (B-Alanines), (R)-3-(2-Heptylamino)propionic acid hydrochloride]: the “Rescue by Amino Acids and Esters in the CGC Assay, 10^−9 M” value in series [1] (setting [3]) is reported as “R”. Further, in series [1] (setting [4]), the “Rescue by Amino Acids and Esters in the CGC Assay, 10^−12 M” value is “R”. Besides, in series [1], the “Rescue by Amino Acids and Esters in the CGC Assay, Rescue (overall yes/no)” value is recorded as “yes”.

As for `CCCCCC(C)NCC(=O)O` (stereo in doubt) [R-2-Heptyl (Glycines), (R)-2-(2-Heptylamino)acetic acid hydrochloride], the “Rescue by Amino Acids and Esters in the CGC Assay, Rescue (overall yes/no)” value in series [1] is recorded as “no”.

For the compound `CCCCCC(C)NCCC#N` (stereo in doubt) [R-2-Heptyl (Propionitriles), (R)-3-(2-Heptylamino)propionitrile hydrochloride], the “Rescue by Amino Nitriles in the CGC Assay, 10^−9 M” value (shortened to “Rescue by Amino Nitriles … 10^−9 M”) in series [1] (setting [3]) was “R”. Also, in series [1] (setting [4]), the “Rescue by Amino Nitriles in the CGC Assay, 10^−12 M” value was “R”. Besides, the “Rescue by Amino Nitriles in the CGC Assay, Rescue (overall yes/no)” value (shortened to “Rescue by Amino Nitriles … (overall yes/no)”) in series [1] is listed as “yes”.

Consider `CCCCCC(C)N(C)CCC#N` (stereo in doubt) [R-2-Heptyl-N-methyl (Propionitriles), (R)-3-(2-Heptylmethylamino)propionitrile hydrochloride], for which the “Rescue by Amino Nitriles … 10^−9 M” value in series [1] (setting [3]) is “R”. Besides, in series [1], the “Rescue by Amino Nitriles … (overall yes/no)” value is “yes”.

Turning to `CCCCCC(C)NCC#N` (stereo in doubt) [R-2-heptyl (Acetonitriles), (R)-2-(2-Heptylamino)acetonitrile hydrochloride], the “Rescue by Amino Nitriles … (overall yes/no)” value in series [1] is reported as “no”.

Take `CCCCCCNCC#N.Cl` [1-Hexyl (Acetonitriles), 2-(1-Hexylamino)acetonitrile hydrochloride]: the “Rescue by Amino Nitriles … 10^−9 M” value in series [1] (setting [3]) was “R”. Further, the “Rescue by Amino Nitriles in the CGC Assay, 10^−12 M” value in series [1] (setting [4]) was “R”. Further, in series [1], the “Rescue by Amino Nitriles … (overall yes/no)” value is listed as “yes”.

In the case of `CCCCCCNCCP(=O)(O)O.Cl` [1-Hexyl (Amino Phosphonic Acids), 2-(1-Hexylamino)ethanephosphonic acid hydrochloride], in series [1], the “Rescue by Amino Phosphonic Acids in the CGC Assay, Rescue (overall yes/no)” value is listed as “no”.

On to `CCCCCCNCCC(=O)OC` [1-Hexyl (B-Alaninates), Methyl 3-(1-hexylamino)propionate hydrochloride], for which the “Rescue by Amino Acids and Esters in the CGC Assay, 10^−9 M” value in series [1] (setting [3]) was “R”. Moreover, the “Rescue by Amino Acids and Esters in the CGC Assay, 10^−12 M” value in series [1] (setting [4]) was “R”. Moreover, the “Rescue by Amino Acids and Esters in the CGC Assay, Rescue (overall yes/no)” value in series [1] is “yes”.

Take `CCCCCCNCC(=O)O.Cl` [1-Hexyl (Glycines), 2-(1-Hexylamino)acetic acid hydrochloride]: in series [1] (setting [3]), the “Rescue by Amino Acids and Esters in the CGC Assay, 10^−9 M” value is recorded as “R”. The “Rescue by Amino Acids and Esters in the CGC Assay, Rescue (overall yes/no)” value in series [1] is recorded as “yes”.

As to `COC(=O)CCNC(C)C.Cl` [2-Propyl (B-Alaninates), Methyl 3-(2-propylamino)propionate hydrochloride], the “Rescue by Amino Acids and Esters in the CGC Assay, Rescue (overall yes/no)” value in series [1] is listed as “no”.

Take `CC(C)NCC(=O)O.Cl` [2-Propyl (Glycines), 2-(2-Propylamino)acetic acid hydrochloride]: the “Rescue by Amino Acids and Esters in the CGC Assay, 10^−6 M” value in series [1] (setting [2]) was “R”. In addition, the “Rescue by Amino Acids and Esters in the CGC Assay, Rescue (overall yes/no)” value in series [1] is on record as “yes”.

For the compound `CC(C)NCCC#N.Cl` [2-Propyl (Propionitriles), 3-(2-Propylamino)propionitrile hydrochloride], the “Rescue by Amino Nitriles … (overall yes/no)” value in series [1] is listed as “no”.

`CC(C)N(C)CCC(=O)O` [2-Propyl-N-methyl (B-Alanines), 3-(2-Propylmethylamino)propionic acid]: the “Rescue by Amino Acids and Esters in the CGC Assay, 10^−6 M” value in series [1] (setting [2]) is on record as “R”. The “Rescue by Amino Acids and Esters in the CGC Assay, 10^−9 M” value in series [1] (setting [3]) was “R”. Further, in series [1], the “Rescue by Amino Acids and Esters in the CGC Assay, Rescue (overall yes/no)” value is given as “yes”.

With `CCCCC[C@@H](C)NCCP(=O)(O)O.Cl` [R-2-Heptyl (Amino Phosphonic Acids), (R)-2-(2-Heptylamino)ethanephosphonic acid hydrochloride], the “Rescue by Amino Phosphonic Acids in the CGC Assay, Rescue (overall yes/no)” value in series [1] is “yes*”.

As for `CCCCC[C@@H](C)N(C)CCC(=O)OC.Cl` [R-2-Heptyl-N-methyl (B-Alaninates), (R)-Methyl 3-(2-heptylmethylamino)propionate hydrochloride], the “Rescue by Amino Acids and Esters in the CGC Assay, 10^−6 M” value in series [1] (setting [2]) is listed as “R”. For the same compound, in series [1] (setting [3]), the “Rescue by Amino Acids and Esters in the CGC Assay, 10^−9 M” value is recorded as “R”. Besides, the “Rescue by Amino Acids and Esters in the CGC Assay, 10^−12 M” value in series [1] (setting [4]) is listed as “R”. Moreover, the “Rescue by Amino Acids and Esters in the CGC Assay, Rescue (overall yes/no)” value in series [1] is recorded as “yes”.

Regarding `CCCCC[C@@H](C)N(C)CCC(=O)O.Cl` [R-2-Heptyl-N-methyl (B-Alanines), (R)-3-(2-Heptylmethylamino)propionic acid hydrochloride], in series [1] (setting [2]), the “Rescue by Amino Acids and Esters in the CGC Assay, 10^−6 M” value is “R”. The “Rescue by Amino Acids and Esters in the CGC Assay, 10^−9 M” value in series [1] (setting [3]) is given as “R”. For the same compound, the “Rescue by Amino Acids and Esters in the CGC Assay, 10^−12 M” value in series [1] (setting [4]) is given as “R”. The “Rescue by Amino Acids and Esters in the CGC Assay, Rescue (overall yes/no)” value in series [1] is given as “yes”.

In the case of `CCC[C@@H](C)NCC#N` [R-2-Pentyl (Acetonitriles), (R)-2-(2-Pentylamino)acetonitrile], in series [1] (setting [3]), the “Rescue by Amino Nitriles … 10^−9 M” value is “R”. For the same compound, the “Rescue by Amino Nitriles … (overall yes/no)” value in series [1] was “yes”.

Take `CCC[C@@H](C)NCCP(=O)(O)O` [R-2-Pentyl (Amino Phosphonic Acids), (R)-2-(2-Pentylamino)ethanephosphonic acid]: in series [1] (setting [2]), the “Rescue by Amino Phosphonic Acids in the CGC Assay, 10^−6 M” value is listed as “R”. The “Rescue by Amino Phosphonic Acids in the CGC Assay, Rescue (overall yes/no)” value in series [1] is “yes”.

For the compound `CCCCC[C@H](C)NCCP(=O)(O)O.Cl` [S-2-Heptyl (Amino Phosphonic Acids), (S)-2-(2-Heptylamino)ethanephosphonic acid hydrochloride], the “Rescue by Amino Phosphonic Acids in the CGC Assay, 10^−9 M” value in series [1] (setting [3]) is reported as “R”. Further, the “Rescue by Amino Phosphonic Acids in the CGC Assay, 10^−12 M” value in series [1] (setting [4]) is listed as “R”. The “Rescue by Amino Phosphonic Acids in the CGC Assay, Rescue (overall yes/no)” value in series [1] is on record as “yes”.

For `CCCCC[C@H](C)NCC(=O)O.Cl` [S-2-Heptyl (Glycines), (S)-2-(2-Heptylamino)acetic acid hydrochloride], in series [1] (setting [2]), the “Rescue by Amino Acids and Esters in the CGC Assay, 10^−6 M” value is listed as “R”. The “Rescue by Amino Acids and Esters in the CGC Assay, 10^−9 M” value in series [1] (setting [3]) is “R”. Also, the “Rescue by Amino Acids and Esters in the CGC Assay, 10^−12 M” value in series [1] (setting [4]) was “R”. The “Rescue by Amino Acids and Esters in the CGC Assay, Rescue (overall yes/no)” value in series [1] is “yes”.

Turning to “(S)-2-(2-Heptylamino)ethane-5-tetrazole hydrochloride [S-2-Heptyl (Amino Tetrazoles)]”, the “Rescue by Amino Tetrazoles in the CGC Assay, Rescue (overall yes/no)” value in series [1] is “no”.

For orientation: melting point means the temperature, or range, at which the solid turns liquid.

Values taken from patent US6984754B1, “Aliphatic amino carboxylic and amino phosphonic acids amino nitriles and amino tetrazoles as cellular rescue agents” (University of Saskatchewan Technologies Inc., priority 1998, dated 2006).
